Assay results taken from ChEMBL document CHEMBL5137006, “Synthesis and Characterization of Transition-State Analogue Inhibitors against Human DNA Methyltransferase 1” (J Med Chem, 2022).
Active and inactive are the calls of the source. No cut-off for these calls is given here.

Assays:
[1] = biological target: T1, DNA (cytosine-5)-methyltransferase 1 (Homo sapiens, UniProt P26358); assay: Inhibition of human recombinant full-length DNMT1 expressed in Sf9 cells assessed as inhibition of methylated dI-dC formation using poly dI-dC and [Me-3H]SAM as substrate incubated for 2 hrs by liquid scintillation counting analysis
[2] = biological target: T1, DNA (cytosine-5)-methyltransferase 1; assay: (§1) Inhibition of human C-terminal domain DNMT1 catalytic domain (351 to 1600 residues) expressed in Escherichia coli BL21-CodonPlus (DE3)-RIL cells assessed as inhibition of methylated dI-dC formation using 1 ug/ml poly dI-dC and [Me-3H]SAM as substrate incubated for 2 hrs by liquid scintillation counting analysis
[3] = biological target: T1, DNA (cytosine-5)-methyltransferase 1; assay: as §1, with “using 5” for “using 1”
[4] = biological target: T1, DNA (cytosine-5)-methyltransferase 1; assay: as §1, with “using 25” for “using 1”
[5] = biological target: T1, DNA (cytosine-5)-methyltransferase 1; assay: as §1, with “using” for “using 1 ug/ml”, “and 1 uM” for “and”
[6] = biological target: T1, DNA (cytosine-5)-methyltransferase 1; assay: as §1, with “using” for “using 1 ug/ml”, “and 6 uM” for “and”
[7] = biological target: T1, DNA (cytosine-5)-methyltransferase 1; assay: as §1, with “using” for “using 1 ug/ml”, “and 8 uM” for “and”
[8] = biological target: T1, DNA (cytosine-5)-methyltransferase 1; assay: as §1, with “using” for “using 1 ug/ml”, “and 12 uM” for “and”
[9] = biological target: T1, DNA (cytosine-5)-methyltransferase 1; assay: Binding affinity to human C-terminal domain DNMT1 catalytic domain ([…] residues) expressed in Escherichia coli BL21-CodonPlus (DE3)-RIL cells by ultrafiltration binding assay
[10] = biological target: T1, DNA (cytosine-5)-methyltransferase 1; assay: Inhibition of DNMT1 in human HT-29 cells assessed as reduction of 5-methylcytosine in cellular DNA at 100 uM incubated for 96 hrs by nLC-MS analysis; type: cell-based

T1 sequence (P26358 whole entry, the tested form may be a part): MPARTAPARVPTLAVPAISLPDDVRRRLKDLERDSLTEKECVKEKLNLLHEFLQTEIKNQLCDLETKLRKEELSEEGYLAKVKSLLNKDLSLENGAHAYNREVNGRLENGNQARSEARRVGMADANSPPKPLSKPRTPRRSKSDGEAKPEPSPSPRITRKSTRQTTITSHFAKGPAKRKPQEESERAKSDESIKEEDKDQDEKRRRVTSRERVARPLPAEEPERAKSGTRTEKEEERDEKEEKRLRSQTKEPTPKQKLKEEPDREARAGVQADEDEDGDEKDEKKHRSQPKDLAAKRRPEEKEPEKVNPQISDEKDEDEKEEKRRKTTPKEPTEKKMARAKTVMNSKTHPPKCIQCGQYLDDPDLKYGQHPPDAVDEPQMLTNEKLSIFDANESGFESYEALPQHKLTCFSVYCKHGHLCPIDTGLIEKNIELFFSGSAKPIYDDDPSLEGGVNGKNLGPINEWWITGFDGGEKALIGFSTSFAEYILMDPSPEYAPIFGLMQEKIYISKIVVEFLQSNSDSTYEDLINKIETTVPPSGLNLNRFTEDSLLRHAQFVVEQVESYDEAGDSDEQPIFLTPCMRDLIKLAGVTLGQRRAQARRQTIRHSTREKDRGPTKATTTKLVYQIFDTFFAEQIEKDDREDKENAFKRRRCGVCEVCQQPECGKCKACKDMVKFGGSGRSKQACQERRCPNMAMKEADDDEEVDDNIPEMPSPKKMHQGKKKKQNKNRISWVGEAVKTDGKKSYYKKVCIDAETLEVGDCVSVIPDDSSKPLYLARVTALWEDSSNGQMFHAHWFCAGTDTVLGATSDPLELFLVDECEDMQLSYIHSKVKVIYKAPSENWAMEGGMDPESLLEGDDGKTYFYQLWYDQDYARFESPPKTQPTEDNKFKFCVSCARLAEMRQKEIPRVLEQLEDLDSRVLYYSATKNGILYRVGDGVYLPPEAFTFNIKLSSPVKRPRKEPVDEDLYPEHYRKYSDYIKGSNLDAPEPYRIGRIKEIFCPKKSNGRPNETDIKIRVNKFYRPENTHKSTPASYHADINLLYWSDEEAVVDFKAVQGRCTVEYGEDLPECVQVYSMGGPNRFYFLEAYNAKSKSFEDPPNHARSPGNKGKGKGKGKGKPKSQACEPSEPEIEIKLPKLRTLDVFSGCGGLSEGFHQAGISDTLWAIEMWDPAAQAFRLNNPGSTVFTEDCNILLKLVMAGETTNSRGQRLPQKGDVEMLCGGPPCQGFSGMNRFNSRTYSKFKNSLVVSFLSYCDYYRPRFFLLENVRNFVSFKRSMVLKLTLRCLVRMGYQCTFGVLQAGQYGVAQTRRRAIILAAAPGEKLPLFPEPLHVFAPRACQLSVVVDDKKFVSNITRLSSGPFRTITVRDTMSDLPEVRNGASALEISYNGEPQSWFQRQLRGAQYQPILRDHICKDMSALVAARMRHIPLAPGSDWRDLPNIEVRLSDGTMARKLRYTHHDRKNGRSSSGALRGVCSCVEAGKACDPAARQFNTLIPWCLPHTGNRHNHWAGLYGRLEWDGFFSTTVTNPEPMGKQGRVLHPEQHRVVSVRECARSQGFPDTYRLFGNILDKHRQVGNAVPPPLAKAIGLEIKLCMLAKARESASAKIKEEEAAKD

Row | SMILES | IC50 [1] [µM] | further results
1 | Nc1nc(=O)n([C@H]2C[C@H](O)[C@@H](CO)O2)cc1CCCNC[C@H]1O[C@@H](n2cnc3c(N)ncnc32)[C@H](O)[C@@H]1O | 10.3 | –
2 | NC1=NC(=O)N([C@H]2C[C@H](O)[C@@H](CO)O2)CN1CCCCCN(CC[C@H](N)C(=O)O)C[C@H]1O[C@@H](n2cnc3c(N)ncnc32)[C@H](O)[C@@H]1O | 19.6 | –
3 | Nc1nc(=O)n([C@H]2C[C@H](O)[C@@H](CO)O2)cc1CN(CC[C@H](N)C(=O)O)C[C@H]1O[C@@H](n2cnc3c(N)ncnc32)[C@H](O)[C@@H]1O | 8.5 | –
4 | Nc1nc(=O)n([C@H]2C[C@H](O)[C@@H](CO)O2)cc1CNCC[C@H](N)C(=O)O | 17.2 | –
5 | Nc1nc(=O)n([C@H]2C[C@H](O)[C@@H](CO)O2)cc1CCSC[C@H]1O[C@@H](n2cnc3c(N)ncnc32)[C@H](O)[C@@H]1O | > 100 | –
6 | Nc1nc(=O)n([C@H]2C[C@H](O)[C@@H](CO)O2)cc1CSC[C@H]1O[C@@H](n2cnc3c(N)ncnc32)[C@H](O)[C@@H]1O | > 100 | –
7 | Nc1nc(=O)n([C@H]2C[C@H](O)[C@@H](CO)O2)cc1CCCSC[C@H]1O[C@@H](n2cnc3c(N)ncnc32)[C@H](O)[C@@H]1O | > 100 | –
8 | Nc1ncn(C2C[C@H](O)[C@@H](CO)O2)c(=O)n1 (stereo not given in full) | – | inhibition [10]: Active
9 | Nc1nc(=O)n([C@H]2C[C@H](O)[C@@H](CO)O2)cc1CSCC[C@H](N)C(=O)O | 7.2 | –
10 | Nc1nc(=O)n([C@H]2C[C@H](O)[C@@H](CO)O2)cc1SCCN(CC[C@H](N)C(=O)O)C[C@H]1O[C@@H](n2cnc3c(N)ncnc32)[C@H](O)[C@@H]1O | 3.6 | –
11 | Nc1nc(=O)n([C@H]2C[C@H](O)[C@@H](CO)O2)cc1CCN(CC[C@H](N)C(=O)O)C[C@H]1O[C@@H](n2cnc3c(N)ncnc32)[C@H](O)[C@@H]1O | 10.3 | –

Now from value to compound, other results behind:

Row | IC50 [1] [µM] | SMILES | further results
12 | 2.7 | Nc1nc(=O)n([C@H]2C[C@H](O)[C@@H](CO)O2)cc1CNCCCC[C@H](N)C(=O)O | –
13 | 1.2 | Nc1nc(=O)n([C@H]2C[C@H](O)[C@@H](CO)O2)cc1CNCC(CC[C@H](N)C(=O)O)C[C@H]1O[C@@H](n2cnc3c(N)ncnc32)[C@H](O)[C@@H]1O (stereo not given in full) | IC50 [2]: 4 µM; IC50 [3]: 5.1 µM; IC50 [4]: 5.4 µM; IC50 [5]: 3.5 µM; IC50 [6]: 6.1 µM; IC50 [7]: 6.7 µM; IC50 [8]: 8.7 µM; Kd [9]: 7.3 µM
14 | 1.1 | Nc1nc(=O)n([C@H]2C[C@H](O)[C@@H](CO)O2)cc1CSCCCC[C@H](N)C(=O)O | –
15 | 0.9 | Nc1nc(=O)n([C@H]2C[C@H](O)[C@@H](CO)O2)cc1CSCCC[C@H]1O[C@@H](n2cnc3c(N)ncnc32)[C@H](O)[C@@H]1O | –
16 | 0.4 | Nc1nc(=O)n([C@H]2C[C@H](O)[C@@H](CO)O2)cc1CNC[C@H]1O[C@@H](n2cnc3c(N)ncnc32)[C@H](O)[C@@H]1O | –
17 | 2.9 | Nc1nc(=O)n([C@H]2C[C@H](O)[C@@H](CO)O2)cc1CCCN(CC[C@H](N)C(=O)O)C[C@H]1O[C@@H](n2cnc3c(N)ncnc32)[C@H](O)[C@@H]1O | –
